# In patent publication US20060193902A1, “Pharmaceutical compositions containing active agents having a lactone group and transition metal ions” (Celator Pharmaceuticals, Inc., priority 2003, published 2006):
# Key:
# DNA = settings: copper(II) complex, long-wave UV light; CuSO4 and drug 10 μM; cited from earlier work
# [1] = 3 hours of incubation in human blood; cited from earlier work
# [2] = Thin layer chromatography for ring closed lactone and ring open carboxylate forms of irinotecan (Example 5); type: physicochemical; settings: HEPES buffered saline, acidic conditions, 30 minutes; lactone form
# Experimental: Three sets of liposomal formulations of irinotecan were prepared as previously described. […] Any unencapsulated irinotecan was removed by column chromatography. […] The third formulation (B) contained irinotecan and floxuridine in the final composition. In this formulation the liposomes were prepared in the presence of floxuridine and then unencapsulated drug was removed by chromatography. […] In all cases the external pH was adjusted to match the internal liposomal pH prior to irinotecan loading.
# Liposomal formulations of irinotecan were first analyzed for ring closed lactone and ring open carboxylate forms of the drug by thin layer chromatography. A set of standards were first prepared and used as a reference for the liposomal formulations. […] The TLC plates were dried overnight at room temperature and then run in a second solvent system composed of butanol:acetic acid:water:acetone (4:2:1:1). […] As the pH of the solution increased, the presence of the carboxylate band appears.
# The plates were run in the same solvent systems and visualized by UV light.
# [3] = Lactone/carboxy ratio of irinotecan in buffers with or without copper sulphate, by HPLC (Example 2); type: physicochemical; settings: presence of CuSO4, pH 7.5
Structure (SMILES),DNA cleavage (DNA),lactone ring present [1],irinotecan species seen by TLC in aqueous standards [2],irinotecan remaining in the lactone form ([3]; 4 hours),"irinotecan present in the ring-closed, lactone form ([3]; 24 hours)"
CC[C@H]1C(=O)OCc2c1cc1n(c2=O)Cc2cc3ccccc3nc2-1 [20-deoxycamptothecin],28%,,,,
CC[C@@]1(O)C(=O)OCc2c1cc1n(c2=O)Cc2cc3ccccc3nc2-1 [camptothecin],51%,5%,,,
"CCc1c2c(nc3ccc(OC(=O)N4CCC(N5CCCCC5)CC4)cc13)-c1cc3c(c(=O)n1C2)COC(=O)[C@]3(O)CC [Irinotecan, irinotecan]",,,dominant species,56.39%,58.66%
CC[C@@]1(O)C(=O)OCc2c1cc1n(c2=O)Cc2cc3cc(O)ccc3nc2-1 [10-hydroxycamptothecin],1.7%,,,,
